Test results from US20200138921A1, “METHODS OF PREVENTING AND TREATING DISEASES CHARACTERIZED BY SYNAPTIC DYSFUNCTION AND NEURODEGENERATION INCLUDING ALZHEIMER'S DISEASE” (The Trustees of Columbia University in the City of New York, priority 2017, published 2020).

Columns and labels:
Ube3A = assay: Immunoprecipitation of HA-Ube3A and phospho-tyrosine immunoblot in B35 cells; assay type: cell-based, rat; conditions: B35 cells overexpressing HA-tagged Ube3A, as early as 1 hour
Procedure: Hippocampal neuron cultures from both male and female rat embryos (E17-18) were prepared following a slightly modified version of the method of Brewer et al. 1996. Hippocampal neurons were kept in culture at 37° C. with 5% CO2 in Neurobasal medium (ThermoFisher) with B27 (ThermoFisher) supplement and Glutamax (ThermoFisher) and plated at a density of 2.5×10^5 cell/ml on dishes coated with poly-D-lysine (ThermoFisher). For the experiments, neurons were used after 14-21 days in vitro (DIV). Rat neuroblastoma B35 cells were cultured and maintained in DMEM (ThermoFisher) supplemented with 10% fetal bovine serum (FBS; Invitrogen) and Glutamax (ThermoFisher).
Cells were collected and homogenized with IP lysis buffer (ThermoFisher) supplemented with Halt protease and phosphatase inhibitor (ThermoFisher). Cell extracts were incubated overnight at 4° C. with 1.0 μg HA antibody (Cell Signaling) or mouse IgG (Cell Signaling) as a negative control Immunocomplexes were incubated with magnetic beads covalently coated with protein G (Invitrogen) on a rotator for 2 hours, at 4° C. The beads were then pelleted with a magnet and washed 3 times with 1× cell lysis buffer (Cell Signaling) supplemented with complete mini protease inhibitor mixture (Roche). The immunocomplexes were resuspended in cell lysis buffer, LDS-sample buffer (Invitrogen), […] dithiothreitol (DTT), and analyzed by Western blotting. […]

c-Abl = assay: Western blot of phosphorylated c-Abl; assay type: cell-based, rat; conditions: oAβ treated vs vehicle (FIG. 4)
Source text: FIG. 4A is a quantification of Western blots of phosphorylated c-Abl in vehicle treated (control) and DPH treated hippocampal neurons. FIG. 4B is a quantification of Western blots of phosphorylated Ube3A in vehicle treated (control) and DPH treated hippocampal neurons. […] FIG. 4D is a quantification from Western blots of phosphorylated Ube3A in vehicle treated (control), oAβ treated, and oAβ with STI treated hippocampal neurons. Graphs represent mean values and standard deviation. Significance determined by unpaired student's t-test in FIGS. 4A and 4B, and one-way ANOVA followed by Tukey Post Hoc multiple comparisons in FIGS. 4C and 4D.
It was hypothesized that oAβ could affect the ligase function of Ube3A. One important regulatory mechanism of Ube3A is through c-Abl-mediated phosphorylation tyrosine residue 636 (Y636), which impairs its E3 ligase activity (Chan et al. 2013). […] Since phospho-Ube3A antibodies are not available it was decided to test the hypothesis in B35 neuroblastoma cell line overexpressing HA-tagged Ube3A for immunoprecipitation.

Arc = assay: Western blot of Arc in hippocampal neurons; assay type: cell-based, rat; conditions: Aβ for 8-10 hours
Procedure: (§1) Whole frozen mouse hippocampi, human brain specimens, and cultured cells were homogenized in RIPA buffer (ThermoFisher) supplemented with protease and phosphatase inhibitor cocktail (ThermoFisher), using a Teflon dounce homogenizer and centrifuged at 14,000 rpm for 10 minutes at 4° C. Supernatants were collected, normalized by BCA assay (ThermoFisher), and prepared for loading using sample buffer (SB) 4× (ThermoFisher) and dithiothreitol (DTT) 10× (ThermoFisher).
As observed in the Tg2576 mice hippocampi, the levels of Ube3A inversely correlated with the levels of Arc and Ephexin-5. To determine whether this correlation was also observed in hippocampal neurons, the cells were treated with Aβ for 8-10 hours, and whole cell lysates were collected for Western blot analysis.

GluR1 = assay: Surface GluR1 in hippocampal neurons (biotinylated surface Western blot, immunostaining); assay type: cell-based, rat; conditions: hippocampal neurons treated with Aβ
Procedure: Cells were fixed in PFA (4%) in […] PBS for 10 minutes at room temperature. Permeabilization was performed using 0.4% Triton X-100 (Sigma) in PBS for 20 minutes. Then, cells were incubated in anti-GluR1 primary antibody (Millipore) in Superblock (Thermo Scientific) with 0.1% Triton X-100 for 12 hours at 4° C. Cells were washed with PBS, and then incubated in goat anti-mouse Alexa 568 in Superblock with 0.1% Triton X-100 for 1 hour at RT. Then cells were mounted onto glass slides using Gel Mount (Biomeda).
The consequences of upregulation of Arc and Ephexin-5 are well characterized. In the case of Arc, one its key function is to regulate postsynaptic trafficking of AMPA receptor subunits, and to regulate spine morphology and network stability (Korb and Finkbeiner 2011).

Lfc = assay: Levels or activities of Lfc in hippocampal neurons; assay type: cell-based, rat; conditions: hippocampal neurons treated with oAβ (results not shown)
NMDAR1 = assay: Western blot of NMDAR1 in hippocampal neurons; assay type: cell-based, rat; conditions: neurons pretreated with 300 nM TOP, oAβ for 24 hours
Procedure: as §1
To further test whether increasing Ube3A could rescue the effects of oAβ, cultured primary hippocampal neurons (14 DIV) were pretreated with 300 nM of TOP or control PBS. The neurons were then treated with oAβ for 24 hours, and whole cell lysates prepared for Western blot analysis, or fixed for microscopy.
Cells were also assessed for localization of PSD95 and NMDAR1, markers of postsynaptic terminals. Cells treated with TOP had increased levels of PSD95 and NMDAR1 (FIGS. 11B and 11C).

J20 mice = assay: Morris water maze in J20 AD mice; assay type: in vivo; conditions: single TOP injection 275 μg
Source text: The J20 transgenic mouse line also used in the studies expresses a mutated human APP (hAPP: K670N/M671L and V717F) under the control of the platelet-derived growth factor promoter (Mucke et al. 2000). These mice have deficits in learning and memory, inhibition of long-term potentiation, loss of dendritic spines, profuse amyloid plaques, and increased phosphorylation of the tau protein. These mice also have increased RhoA-GTP activity and progressive decrease in spinal density when treated with oligomeric Aβ. See Pozueta et al. 2013.
Mice were trained to find a hidden platform in a circular pool of 1.10 m diameter located in a room with extra maze cues. The location of the platform ([…] diameter) was constant for each mouse during training and was placed 1 cm beneath the surface of the water, maintained at 24° C.±2° C. throughout the duration of the test. At the end of test, the mice were dried off and placed in a clean cage with extra paper towels to prevent hypothermia Animals were then monitored inside their cage until eating, drinking, and ambulating normally Mice were trained in sessions consisting of four trials a day for five consecutive days. Mice started from different quadrants on a random basis during each trial and all four quadrants were used on any given day. The maximum swimming time allowed on each trial was 60 seconds.
Probe trials (1 session: 1 trials/session) were conducted 24 hours after the last training trial. During the probe test the platform was removed and mice were free to swim in the pool for 60 seconds. Time spent in each quadrant was measured. Trial and probe test sessions were recorded and analyzed with a video tracking system (Noldus). After the probe, mice were tested in the visible test for two consecutive days, 2 sessions/day with 3 trials/session to assess whether the mice were able to locate a visible platform (its location varied between the three trials of the same session). The ability of the mice to locate a clearly visible platform was also tested in order to exclude differences in vision, swim speed, and motivation. […]

| Compound | phospho-tyrosinated Ube3A (pTyr-Ube3A) (Ube3A) | c-Abl phosphorylation (c-Abl) | levels of Arc protein (Arc) | levels of surface-expressed GluR1 subunit (GluR1) | levels or activities of Lfc (Lfc) | levels of NMDAR1 (NMDAR1) | learning (Morris water maze latency to platform) (J20 mice) | memory (Morris water maze time in target quadrant) (J20 mice) | motor functions or motivation (J20 mice; speed and time to platform) |
| --- | --- | --- | --- | --- | --- | --- | --- | --- | --- |
| oAβ: synthetic soluble oligomeric Aβ1-42 | significant increase | induces | significant increase | significant decrease | no observation of any differences | – | – | – | – |
| CC[C@@]1(O)C(=O)OCc2c1cc1n(c2=O)Cc2cc3c(CN(C)C)c(O)ccc3nc2-1 [TOP, topotecan] | – | – | – | – | – | increased | did not affect | significantly increased | no effect |
